Paper PMC11882969 (Nature Communications, 2025)

Molecular target: CB1 (rCB1) (Rattus norvegicus, UniProt P20272)
Experiment: Single-point radioligand displacement screen
Assay type: binding
Conditions: 10 µM, 1 µM or 300 nM by cell colour (not visible)

Sequence of CB1 (rCB1) (P20272 whole entry): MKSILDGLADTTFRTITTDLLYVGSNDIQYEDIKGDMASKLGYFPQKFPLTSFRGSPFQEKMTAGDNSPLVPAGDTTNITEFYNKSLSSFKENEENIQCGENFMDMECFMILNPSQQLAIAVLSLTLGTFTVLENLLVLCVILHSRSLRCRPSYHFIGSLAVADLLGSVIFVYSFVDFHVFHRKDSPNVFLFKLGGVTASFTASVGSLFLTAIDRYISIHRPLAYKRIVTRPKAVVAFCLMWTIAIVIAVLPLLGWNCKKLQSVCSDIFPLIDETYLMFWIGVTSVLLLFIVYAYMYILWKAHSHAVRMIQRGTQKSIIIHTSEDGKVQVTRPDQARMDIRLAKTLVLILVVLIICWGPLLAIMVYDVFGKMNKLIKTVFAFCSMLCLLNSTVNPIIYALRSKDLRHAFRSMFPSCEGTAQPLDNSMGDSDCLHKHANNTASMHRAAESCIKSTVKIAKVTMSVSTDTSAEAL

| SMILES | % 1H-CP-55,940 displacement (mean) from single point screen |
| --- | --- |
| Cc1cc(C(=O)N2CC3(CCC3)C2c2ccco2)nn1-c1cccc(C(F)(F)F)c1 (stereo not drawn) [10_10] | 94.41% |
| Cc1cc(C(=O)N2CC3(CCC3)[C@@H]3COC[C@@H]32)nn1-c1cccc(C(F)(F)F)c1 [10_14] | 91.30% |
| COC(=O)[C@@H]1[C@@H]2CCC[C@@H]2CN1C(=O)c1nn(-c2cccc(C(F)(F)F)c2)c2c1CCC2 [10_17] | 98.24% |
| Cc1cc(C(=O)N2CC3(CCC3)C2C2CCOCC2)nn1-c1cccc(C(F)(F)F)c1 (stereo not drawn) [10_19] | 82.61% |
| CC1(C)CN(C(=O)c2cn(-c3cccc(C(F)(F)F)c3)nn2)C1c1cccs1 (stereo not drawn) [10_20] | 52.38% |
| CCOC(=O)C1CN(C(=O)c2cc(C)n(-c3cccc(C(F)(F)F)c3)n2)CC12CC2 (stereo not drawn) [10_21] | 83.57% |
| O=C(c1cn(-c2cccc(C(F)(F)F)c2)nn1)N1CC2(CCC2)C1C1CCCO1 (stereo not drawn) [10_23] | 25.67% |
| C[C@@H](COC(=O)c1nn(C)c(=O)c2ccccc12)Oc1ccc(Cl)cc1 [0450_14] | 28.77% |
| Cn1nc(-c2nnc(C(C)(C)Oc3cccc(Cl)c3)o2)c2ccccc2c1=O [0450_22] | 43.54% |
